Laboratory results as given in patent US9126994B2, “Crystalline form of a quinolinone-carboxamide compound” (Theravance Biopharma R&D IP, LLC, priority 2005, dated 2015).

How the values were obtained:
Assay type in all cases: physicochemical
[1] = Dynamic moisture sorption (DMS) assessment; conditions: for sorption/desorption profile: about 2% to about 90% RH, room temperature
Experimental: Dynamic moisture sorption (DMS) assessment was performed at 25° C. using a VTI atmospheric microbalance, SGA-100 system (VTI Corp., Hialeah, Fla. 33016). A sample size of approximately 5-10 mg was used and the humidity was set at the ambient value at the start of the analysis. A typical DMS analysis consisted of three scans: ambient to 2% relative humidity (RH), 2% RH to 90% RH, 90% RH to 5% RH at a scan rate of 5% RH/step. The mass was measured every two minutes and the RH was changed to the next value (±5% RH) when the mass of the sample was stable to within 0.02% for 5 consecutive points. Representative DMS traces for samples of a crystalline hydrochloride salt and of a crystalline hydrate of a hydrochloride salt of compound I are shown in FIGS. 3 and 6, respectively.

[2] = Thermal analysis (DSC and TGA)
Experimental: Differential scanning calorimetry (DSC) was performed using a TA Instruments Model Q-100 module. Data were collected and analyzed using TA Instruments Thermal Advantage for Q Series™ software. A sample of about 1-10 mg was accurately weighed into an aluminum pan with lid. The sample was evaluated using a linear heating ramp of 10° C./min from 5° C. to, typically, 265° C. The DSC cell was purged with dry nitrogen during use. Representative DSC traces for samples of the crystalline hydrochloride salt and of the crystalline hydrate of a hydrochloride salt of compound I are shown in FIGS. 2 and 5, respectively.
Thermogravimetric analysis (TGA) was performed using a TA Instruments Model Q-500 module. Data were collected and analyzed using TA Instruments Thermal Advantage for Q Series™ software. A sample weighing about 1-5 mg was placed in an aluminum pan on a platinum cradle and scanned from ambient temperature to 300° C. with a linear heating rate of 10° C./min. The balance and furnace chambers were purged with nitrogen during use. Representative TGA traces for samples of a crystalline hydrochloride salt and of a crystalline hydrate of a hydrochloride salt of compound I are also shown in FIGS. 2 and 5, respectively.

[3] = Solid state stability assessment; conditions: for change in DSC, TGA, PXRD results after storage: hydrochloride
Source text: At specific intervals, the contents of a representative vial was removed and analyzed by DSC, TGA, PXRD, and by HPLC for chemical purity.

[4] = comparison of DSC and TGA traces
[5] = 24 weeks at 40° C. and 75% relative humidity

SMILES	weight gain ([1]; 40% RH to 75% RH)	sorption/desorption profile [1]	weight loss on drying ([1]; dried from ambient to 2% RH, regained from 2% RH to 40% RH) [%]	decomposition (degradation) temperature [2, 4]	decomposition at the melt transition ([2]; comparison of DSC and TGA traces, melt about 225° C. to about 250° C.)	weight change (hygroscopicity) ([1]; 2% to 90% relative humidity, room temperature (25° C.))	deliquescence ([1]; exposed to up to 90% relative humidity at room temperature)	temperature up to which thermally stable [2]	temperature below which no significant thermal event ([2]; TGA / DSC trace, 10° C./min)	chemical degradation by HPLC after storage [3, 5]	change in DSC, TGA, PXRD results after storage [3, 5]	change in DSC, TGA, PXRD results after storage ([3]; 24 weeks at 40° C. and 75% relative humidity, listed as hydrochloride salt)	chemical purity of the stored sample (HPLC) ([3]; after 24 weeks of storage, open glass vials, 40° C. and 75% RH) [%]
CC(C)n1c(=O)c(C(=O)N[C@H]2C[C@H]3CC[C@@H](C2)N3C[C@@H](O)CN(C)S(C)(=O)=O)cc2ccccc21.Cl.O [crystalline hydrate, crystalline hydrate of hydrochloride salt of 1-isopropyl-2-oxo-1,2-dihydroquinoline-3-carboxylic acid {(1S,3R,5R)-8-[(R)-2-hydroxy-3-(methanesulfonyl-methyl-amino)propyl]-8-aza-bicyclo[3.2.1]oct-3-yl}amide]	less than 0.25%	reversible	~2.3	above 250 °C	not significant	–	–	–	–	–	–	–	–
CC(C)n1c(=O)c(C(=O)N[C@H]2C[C@H]3CC[C@@H](C2)N3C[C@@H](O)CN(C)S(C)(=O)=O)cc2ccccc21.Cl [crystalline hydrochloride salt, 1-isopropyl-2-oxo-1,2-dihydroquinoline-3-carboxylic acid {(1S,3R,5R)-8-[(R)-2-hydroxy-3-(methanesulfonyl-methyl-amino)propyl]-8-azabicyclo[3.2.1]oct-3-yl}amide hydrochloride]	–	reversible	–	above 230 °C	–	less than 0.2%	neither the crystalline hydrochloride salt of the invention nor the hydrate thereof is deliquescent	greater than 200 °C	about 225 °C	no chemical degradation	no detectable changes	no detectable change	99.6
